Square brackets hold non-standard residues; d marks the D form. Ends that are not written are not given here. Peptide text beside a SMILES is read from it. * marks the point of attachment. Cbz = O=C(OCc1ccccc1)*; Aib = CC(C)(N)C(=O)O
How the values were obtained:
[1] = system: NIH3T3 cells; test: NIH3T3 cell viability, MTS assay; type: cell-based; settings: 10 μg/mL, 48 hours
Protocol: CT26 and NIH3T3 cells (2,000 cells per well) were first cultured in complete medium in 96-well culture plates, and 24 hours later the medium was replaced with serum-free medium. […] Cells were incubated for an additional 48 hours and assayed for viability using MTS assays kit (Promega) according to the manufacturer's protocol.

[2] = system: CT26 cells; test: Tumor-load study: CT26 flank tumors in BALB/c mice; type: in vivo, mouse; settings: for flank tumor volume / flank tumor weight: Example 3, 10 mg/kg subcutaneous daily for 15 days
Protocol: (§1) 6-week-old BALB/c female mice were given a 100 μL subcutaneous injection of 1×10^6 CT26 cells prepared as a single cell suspension in PBS, and the mice were treated with bHDLor BHDLat 10 mg/kg administered subcutaneously (SQ) daily for 15 days. The mice were sacrificed and tumor weights were measured.
6-week-old BALB/c female mice were given a 100 μl subcutaneous injection of 1×10^6 CT26 cells prepared as a single cell suspension in PBS, treated with peptide at 10 mg/kg by SQ daily for 15 days.
The mice were killed and tumor weights were measured. The tumor volumes were measured using the formula V=½ (L×W^2).
as §1, with “Six-week-old” for “6-week-old”, “[…]” for “μL”, “sc-4F or L-4F at” for “bHDLor BHDLat”, “subcutaneously” for “subcutaneously (SQ)”

[3] = system: CT26 cells; test: CT26 cell viability, MTS assay; settings: for Cell viability reduced by, compared with control: Example 3, CT26 cells, 10 μg/ml, 48 hours; for CT26 cell viability vs vehicle-treated controls: Example 6, MTS assay, within 48 hours of treatment
Protocol: CT26 cell line derived from N-nitroso-N-methyl urethane-induced mouse colon carcinoma of BALB/c origin was purchased from the American Type Culture Collection (ATCC). CT26 cells (2,000 cells per well) were first cultured in complete medium in 96-well culture plates, and 24 hours later the medium was replaced with serum free medium. Following an overnight incubation, the cells were either treated with vehicle (control), or treated with 10 μg/mL of either bHDL. The bHDL were dissolved in H2O. Cells were incubated for an additional 48 hours and assayed for viability using the MTS assays kit (Promega) according to the manufacturer's protocol.
CT26 cell line derived from N-nitroso-N-methyl urethane-induced mouse colon carcinoma of BALB/c origin was purchased from the American Type Culture Collection. CT26 cells (2,000 cells per well) were first cultured in complete medium in 96-well culture plates, and 24 hours later the medium was replaced with serum-free medium. Following an overnight incubation, the cells were either treated with vehicle (control) or treated with 10 mg/mL of either L-4F or G* peptide. The peptides were dissolved in H2O. Cells were incubated for an additional 48 hours and assayed for viability using the MTS assay kit (Promega) according to the manufacturer's protocol.

[4] = system: HIF-1α; test: HIF-1α protein expression in human ovarian cancer cell lines, Western blot; type: cell-based; settings: OV2008 cells; MG-132 10 μM 3 h, L-4F 10 μg/ml 1 h, insulin 200 nM 4 h
Protocol: OV2008 cells were cultured in RPMI 1640 media with 10% fetal bovine serum, penicillin (100 U/ml), streptomycin (100 μg/ml), 1× minimal essential medium nonessential amino acid solution (Invitrogen, Carlsbad, Calif.), and insulin (0.25 U/ml) (Invitrogen). CAOV-3 cells were cultured in complete media consisting of Dulbecco's modified Eagle's medium with high glucose and L-glutamine (2 mM), 10% fetal bovine serum, penicillin (100 U/ml), streptomycin (100 μg/ml), and insulin (0.02 U/ml). To create hypoxic conditions, cells were transferred to a hypoxic chamber (model 3130; Thermo Fisher Scientific, Waltham, Mass.), where they were maintained at 37° C. in an atmosphere containing 5% CO2, 1% O2, and 94% N2. L-4F (the peptide Ac-D-W-F-K-A-F-Y-D-K-V-A-E-K-F-K-E-A-F-NH2 (SEQ ID NO: 12) synthesized from all L amino acids) was dissolved in water at 1 mg/ml (freshly prepared every time) and used between 1 and 10 μg/ml. L-5F was synthesized by Peptisyntha Inc. (Torrance, Calif.), dissolved in ABCT buffer (50 mM ammonium bicarbonate, pH 7.0, containing 0.1 mg/ml Tween 20) at 1 mg/ml, and diluted to the required concentrations before use. Cobalt chloride (CoCl2), insulin, cycloheximide (CHX), and N-(benzyloxycarbonyl)leucinylleucinylleucinal-Z-Leu-Leu-Leu-al (MG-132) were purchased from Sigma-Aldrich (St. Louis, Mo.). LPA (Avanti Polar Lipids, Alabaster, Ala.) in chloroform was dried as recommended by the manufacturer, dissolved in ethanol at a concentration of 20 mM as a stock solution, and diluted to the required concentrations in the corresponding cell culture media before use.
Western blot analyses were performed as described previously (Gao et al., 2011). In brief, cell lysates were collected in a lysis buffer containing 0.1 MNaCl, 5 mM EDTA, 50 μM sodium orthovanadate, 1% Triton X-100, and protease inhibitor tablet (Roche Diagnostics, Indianapolis, Ind.) in 50 mM Tris buffer, pH 7.5, loaded onto 4 to 12% Bis-Tris gel (Invitrogen), transferred to polyvinylidene difluoride membrane, and incubated with the appropriate antibodies. Anti-pThr^202/Tyr^204-Erk, anti-Erk, anti-pThr^389-p70 S6 kinase, anti-p70 S6 kinase, anti-pSer^473-Akt, and anti-Akt antibodies were purchased from Cell Signaling Technology (Danvers, Mass.); mouse anti-human HIF-1α antibody was purchased from BD Pharmingen (San Diego, Calif.); rabbit anti-mouse HIF-1α antibody was purchased from Abcam Inc. (Cambridge, Mass.); and anti-GAPDH antibody was purchased from Santa Cruz Biotechnology Inc. (Santa Cruz, Calif.).

[5] = system: APC^min/+ mice; test: APC^min/+ mice study, intestinal tumors; type: in vivo; settings: C57BL/6J-APC^min/+ mice; 100 mg/kg/d in mouse chow for 8 weeks
Protocol: (§2) 6-week-old APC^Min/+ male mice on a C57BL/6J background were treated with bHDL 100 mg/kg/day administered in a chow diet. After 8 weeks treatment, mice were sacrificed. The entire intestine was immediately removed, fixed in formalin and 70% ethanol. The intestine was opened and examined under a dissecting microscope to count and measure the tumors.
as §2, with “Six-week-oldAPC^min/+” for “6-week-old APC^Min/+”, “L-4F or sc-4F at” for “bHDL”, “mg/kg/d” for “mg/kg/day”

[6] = system: CT26 cells; test: Pulmonary metastasis in vivo: CT26 lung tumors in BALB/c mice; set-up: species or system mouse; settings: CT26 via tail vein
Protocol: BALB/c mice were intravenously injected with 2×10^4 CT26 cells in 100 μL of PBS via tail vein injection and the mice were treated with bHDL at 10 mg/kg/day administered SQ for 3 weeks; or treated with bHDL at 100 mg/kg/day administered in a chow diet for 3 weeks. After 3 weeks treatment, the mice were sacrificed; lungs were harvested, weighed and fixed with Bouin's solution (Sigma). Tumor nodules on the lung surface were counted.
BALB/c mice were intravenously injected with 2×10^4 CT26 cells in […] of PBS via tail vein injection and the mice were treated with L-4F or sc-4F at 10 mg/kg/d administered subcutaneously for 3 weeks, or treated with sc-4F or L-4F or G* peptide at 100 mg/kg/d administered in a chow diet for 3 weeks. After 3 weeks treatment, the mice were sacrificed; lungs were harvested, weighed, and fixed with Bouin solution (Sigma). Tumor nodules on the lung surface were counted.

[7] = system: NIH3T3 cells; test: UV-induced cell death, NIH3T3 cell viability; type: cell-based; settings: pre-treatment 10 μg/ml for 24 hrs; UV 5, 10, 20 mJ/cm^2
Protocol: NIH 3T3 ([…]) ells were seeded in 96 well plates in 4 separate plates. After 24 hrs, cells were starved overnight. Apo A-l was used at a concentration (10 μg/ml) to treat the cells for 24 hrs. After treatment of cells were washed with PBS. One plate was used as a control without UV treatment. The remaining three plates were used for UV treatment at 5, 10, and 20 mJ/cm^2. Following UV treatment, cells were given complete media and were cultured for another 24 hrs. Cell viability was measured for all the plates as described previously (Ganapathy E, et al., 2011, D-4F, an apoA-1 mimetic peptide inhibits proliferation and tumorigenicity of epithelial ovarian cancer cells by upregulating the antioxidant enzyme MnSOD, Int J Cancer 130:1071-1081).

[8] = 10 mg/kg/d subcutaneously for 3 weeks
[9] = 100 mg/kg/d in chow diet for 3 weeks

**Q.** How did the NIH3T3 cell viability [1] turn out when CC(=O)N[C@@H](CC(C)C)C(=O)N[C@@H](CCCNC(=N)N)C(=O)N[C@@H](CCCCN)C(=O)N[C@@H](CC(C)C)C(=O)N[C@@H](CCCNC(=N)N)C(=O)N[C@@H](CCCCN)C(=O)N[C@@H](CCCNC(=N)N)C(=O)N[C@@H](CC(C)C)C(=O)N[C@@H](CC(C)C)C(=O)N[C@@H](CCCNC(=N)N)C(=O)N[C@@H](CC(=O)O)C(=O)N[C@@H](Cc1c[nH]c2ccccc12)C(=O)N[C@@H](CC(C)C)C(=O)N[C@@H](CCCCN)C(=O)N[C@@H](C)C(=O)N[C@@H](Cc1ccccc1)C(=O)N[C@@H](Cc1ccc(O)cc1)C(=O)N[C@@H](CC(=O)O)C(=O)N[C@@H](CCCCN)C(=O)N[C@H](C(=O)NC(C)(C)C(=O)N[C@@H](CCC(=O)O)C(=O)N[C@@H](CCCCN)C(=O)N[C@@H](CC(C)C)C(=O)N[C@@H](CCCCN)C(=O)N[C@@H](CCC(=O)O)C(=O)NC(C)(C)C(=O)N[C@@H](Cc1ccccc1)C(N)=O)C(C)C [28AA-2, LRKLRKRLLRDWLKAFYDKV-Aib-E-K-L-K-E-Aib-F] (HELM PEPTIDE1{[ac].L.R.K.L.R.K.R.L.L.R.D.W.L.K.A.F.Y.D.K.V.[Aib].E.K.L.K.E.[Aib].F.[am]}$$$$V2.0; N-terminus and C-terminus assumed) was run?
**A.** not affected

**Q.** With CC(=O)N[C@@H](CC(=O)O)C(=O)N[C@@H](Cc1c[nH]c2ccccc12)C(=O)N[C@@H](Cc1ccccc1)C(=O)N[C@@H](CCCCN)C(=O)N[C@@H](C)C(=O)N[C@@H](Cc1ccccc1)C(=O)N[C@@H](Cc1ccc(O)cc1)C(=O)N[C@@H](CC(=O)O)C(=O)N[C@@H](CCCCN)C(=O)N[C@H](C(=O)NC(C)(C)C(=O)N[C@@H](CCC(=O)O)C(=O)N[C@@H](CCCCN)C(=O)N[C@@H](Cc1ccccc1)C(=O)N[C@@H](CCCCN)C(=O)N[C@@H](CCC(=O)O)C(=O)NC(C)(C)C(=O)N[C@@H](Cc1ccccc1)C(N)=O)C(C)C [L-4F2, Ac-D-W-F-K-A-F-Y-D-K-V-Aib-E-K-F-K-E-Aib-F-NH2] (HELM PEPTIDE1{[ac].D.W.F.K.A.F.Y.D.K.V.[Aib].E.K.F.K.E.[Aib].F.[am]}$$$$V2.0) as the compound, how does the flank tumor volume [2] read?
**A.** 197 mm^3

**Q.** And the flank tumor weight [2]?
**A.** 118 mg

**Q.** And the “Cell viability reduced by, compared with control” value [3]?
**A.** more than 30%

**Q.** And the “CT26 cell viability vs vehicle-treated controls” value [3]?
**A.** reduced cell viability

**Q.** What about the NIH3T3 cell viability [1] of the same compound?
**A.** not affected

**Q.** Which “effect on the L-4F inhibition of insulin-mediated HIF-1α expression” value [4] does the source give for CC(C)C[C@@H](C=O)NC(=O)[C@H](CC(C)C)NC(=O)[C@H](CC(C)C)NC(=O)OCc1ccccc1 [MG-132, N-(benzyloxycarbonyl)leucinylleucinylleucinal-Z-Leu-Leu-Leu-al, reference compound] (Cbz-Leu-Leu-Leu-aldehyde) here?
**A.** led to a reversal of the inhibitory effect of L-4F

**Q.** “Ac-D-W-F-A-K-D-Y-F-K-K-A-F-V-E-E-F-A-K-NH2 (Ac-DWFAKDYFKKAFVEEFAK-NH2) [sc-4F, reference compound]” was tested. Which flank tumor volume [2] did it give?
**A.** 555 mm^3

**Q.** And the flank tumor weight [2]?
**A.** 273 mg

**Q.** And the flank tumor weights ([2]; Example 5, 10 mg/kg subcutaneously daily for 15 days)?
**A.** 778 mg

**Q.** And the “numbers of tumors of diameter 1-3 mm” value [5]?
**A.** 56.5

**Q.** And the “numbers of tumors of diameter >3 mm” value [5]?
**A.** 12.8

**Q.** What about the “total tumor numbers in the intestinal tract, percent of the control” value [5] of the same compound?
**A.** 100%

**Q.** And the lung weights [6, 8]?
**A.** 280 mg

**Q.** And the “tumor numbers counted on the lung surface” value [6, 8]?
**A.** 33

**Q.** And the lung weights [6, 9]?
**A.** 296 mg

**Q.** And the “tumor numbers on the lung surface” value [6, 9]?
**A.** 21

**Q.** With “Ac-LRKLRKRLLRDWLKAFYDKVAEKLKEAF-NH2 [28AA, LRKLRKRLLRDWLKAFYDKVAEKLKEAF, reference compound]” as the compound, how does the flank tumor weight [2] read?
**A.** 188 mg

**Q.** And the “Cell viability reduced by, compared with control” value [3]?
**A.** 70%

**Q.** What about the NIH3T3 cell viability [1] of the same compound?
**A.** not affected

**Q.** How did the “UV-induced cell death (cell viability)” value [7] turn out when “ApoA-II: a protein that is also associated with HDL like apoA-I [reference compound]” was run?
**A.** did not prevent UV-induced cell death

**Q.** With “ApoA-l: full-length and unmodified ApoA-I, typically human, a 28.2 kDa protein of 244 amino acids” as the compound, how does the “UV-induced cell death (cell viability)” value [7] read?
**A.** protects NIH3T3 cells from UV-induced cell death

**Q.** How did the “CT26 cell viability vs vehicle-treated controls” value [3] turn out when “K4,15-4F2: SEQ ID NO: 28; K4,15-4F further modified with Aib substitution for alanine at positions 11 and 17 (DWFRAFYDKV[Aib]EKFRE[Aib]F)” was run?
**A.** reduced cell viability

**Q.** “K4,15-4F: SEQ ID NO: 27; based on K14,15 peptides of Nayyar et al., lysines substituted with arginines at residues 4 and 15 (DWFRAFYDKVAEKFREAF; synthetic peptide mimetic)” was tested. Which “CT26 cell viability vs vehicle-treated controls” value [3] did it give?
**A.** reduced cell viability

**Q.** How did the “CT26 cell viability vs vehicle-treated controls” value [3] turn out when “LRKLRKRLLR LVGRQLEEFL (LRKLRKRLLRLVGRQLEEFL; synthetic peptide mimetic) [20AA]” was run?
**A.** reduced cell viability
